Here are results for one compound from ChEMBL document CHEMBL5390280, “Design, Synthesis, and Biological Evaluation of an Orally Bioavailable, Potent, and Selective ROCK2 Inhibitor for Psoriasis Treatment” (J Med Chem, 2023).

The subject of series [1] is Mus musculus. The series is described as follows: Anti-inflammatory activity in Balb/c mouse model of IMQ-induced skin inflammation assessed as decrease in serum IL-17A level at 40 to 80 mg/kg, po administered daily for 7 days by IHC analysis. The class given is functional, organism-based. Particulars: dose 40-80 mg/kg, time 7.0 day.
Series [2] in a line: AUC (0 to t) in Balb/c mouse at 10 mg/kg, iv measured for 0.08 to 24 hrs by LC-MS/MS analysis. In kind it is ADME, organism-based. Set-up: time upper 24 hrs, time lower 0.08 hrs, dose 10 mg/kg, route iv. Particulars: in vivo.
For series [3], the system named is Mus musculus. The series is described as follows: Anti-inflammatory activity in Balb/c mouse model of IMQ-induced skin inflammation assessed as reduction in skin erythema at 20 to 80 mg/kg, po administered daily for 7 days. Particulars: dose 20-80 mg/kg, time 7.0 day. In kind it is functional, organism-based.
Series [4] concerns Mus musculus. The series is described as follows: Anti-inflammatory activity in Balb/c mouse model of IMQ-induced skin inflammation assessed as decrease in IL-22 mRNA level in dorsal skin at 20 to 40 mg/kg, po administered daily for 7 days by RT-qPCR analysis. The class given is functional, organism-based. To be noted: dose 20-40 mg/kg, time 7.0 day.
Series [5] has as its system HaCaT. In words: Anti-psoriasis effect in KGF-stimulated human HaCaT cells assessed as decrease in elastin level at 2 to 5 uM incubated for 24 hrs by Western blot analysis. In kind it is functional, cell-based. Particulars: dose 2-5 µM. On the technique in general: A western blot detects proteins with antibodies after separation by electrophoresis.
The nature of series [6]: Toxicity in Balb/c mouse model of IMQ-induced skin inflammation assessed as reduction in spleen index administered orally daily for 7 days. In kind it is tissue-based. Particulars: in vivo, po, 168 h, dose 40-80 mg/kg, time 7 day.
For series [7], the system named is Mus musculus. In words: Anti-inflammatory activity in Balb/c mouse model of IMQ-induced skin inflammation assessed as decrease in serum IL-17F level at 40 mg/kg, po administered daily for 7 days by IHC analysis. The class given is functional, organism-based. To be noted: time 7.0 day.
A short description of series [8]: AUC (0 to infinity) in Balb/c mouse at 40 mg/kg, po measured for 0.08 to 24 hrs by LC-MS/MS analysis. In kind it is ADME, organism-based. More on the design: time 0.08-24 hrs, dose 40 mg/kg, route po. Particulars: in vivo.
Series [9] deals with HaCaT. In words: Anti-psoriasis effect in KGF-stimulated human HaCaT cells assessed as decrease in pSTAT3 level at 2 to 5 uM incubated for 24 hrs by Western blot analysis. The class given is functional, cell-based. Particulars: dose 2-5 µM.
Series [10] in a line: Oral bioavailability in Balb/c mouse at 40 mg/kg measured for 0.08 to 24 hrs by LC-MS/MS analysis. The class given is ADME, organism-based. To be noted: in vivo, time 0.08-24 hrs.
The nature of series [11]: Cmax in Balb/c mouse at 40 mg/kg, po measured for 0.08 to 24 hrs by LC-MS/MS analysis. In kind it is ADME, organism-based. Set-up: time lower 0.08 hrs, dose 40 mg/kg, time upper 24 hrs, route po. To be noted: in vivo.
Series [12] concerns Mus musculus. The series is described as follows: Anti-inflammatory activity in Balb/c mouse model of IMQ-induced skin inflammation assessed as decrease in Ki67+ cells in epidermis of dorsal skin at 80 mg/kg, po administered daily for 7 days by IHC analysis. In kind it is functional, organism-based. To be noted: time 7.0 day.
The test system of series [13] is Mus musculus. In words: Anti-inflammatory activity in Balb/c mouse model of IMQ-induced skin inflammation assessed as decrease in IL-17F mRNA level in dorsal skin at 80 mg/kg, po administered daily for 7 days by RT-qPCR analysis. In kind it is functional, organism-based. Particulars: time 7.0 day. A general note: Real-time PCR tracks product formation cycle by cycle.

Series [14] concerns Mus musculus. The series is described as follows: Anti-inflammatory activity in Balb/c mouse model of IMQ-induced skin inflammation assessed as decrease in IL-22 mRNA level in dorsal skin at 80 mg/kg, po administered daily for 7 days by RT-qPCR analysis. The class given is functional, organism-based. Particulars: time 7.0 day.

Active and inactive are the calls of the source. No cut-off for these calls is given here.

For the compound `Cc1cc(=O)n(-c2cccc(CN[C@H]3CCC[C@H](Nc4ccc5[nH]ncc5c4)C3)c2)cc1F`, the result in the series on Mus musculus [1], with Mus musculus [3], in the series on Mus musculus [4], with HaCaT [5], in the series on Mus musculus [7] and with HaCaT [9] was Active. Also, the outcome in the series on Mus musculus [12] and with Mus musculus [14] was Active. In series [2], the AUC(0-t) (usually exposure summed from dosing to a finite time, without extrapolation to infinity) worked out at 1040 ng·h/mL. In series [6], the Activity result is recorded as “Dose-Dependent Effect”. In addition, in series [8], the AUC(0-inf) (commonly total exposure, with the tail of the curve extrapolated) was found to be 302 ng·h/mL. In series [10], the bioavailability – broadly, the share of a dose that reaches the circulation, judged against a reference dose that is usually intravenous – stood at 7.14%. The peak level in [11] (Cmax) was 226 ng/mL. Besides, the outcome in the series with Mus musculus [13] was inactive.
